# Assay: Solubility of cyclodextrins in an aqueous gelatin/glycerin solution
# Type: physicochemical
# Method: The solubility of β-, γ and hydroxypropyl-β-(HPβ) cyclodextrin in the solution containing gelatin was verified. This study was conducted by dissolving quantities of 2.5% or of 5% (W/V) of β-, γ or hydroxypropyl-β-(HPβ) cyclodextrin in an aqueous solution containing 36% (W/W) of gelatin and 15% (W/W) of anhydrous glycerin.
# [1] = 5% (W/V) cyclodextrin in aqueous solution containing 36% (W/W) gelatin and 15% (W/W) anhydrous glycerin
solubility in the solution containing gelatin (2.5% (W/V) cyclodextrin in aqueous solution containing 36% (W/W) gelatin and 15% (W/W) anhydrous glycerin),solubility in the solution containing gelatin [1],Compound
soluble,opalescent mixture,OC[C@H]1O[C@@H]2O[C@H]3[C@H](O)[C@@H](O)[C@@H](O[C@H]4[C@H](O)[C@@H](O)[C@@H](O[C@H]5[C@H](O)[C@@H](O)[C@@H](O[C@H]6[C@H](O)[C@@H](O)[C@@H](O[C@H]7[C@H](O)[C@@H](O)[C@@H](O[C@H]8[C@H](O)[C@@H](O)[C@@H](O[C@H]1[C@H](O)[C@H]2O)O[C@@H]8CO)O[C@@H]7CO)O[C@@H]6CO)O[C@@H]5CO)O[C@@H]4CO)O[C@@H]3CO [β-cyclodextrin]
,soluble,hydroxypropyl-β-cyclodextrin
,soluble,OC[C@H]1O[C@@H]2O[C@H]3[C@H](O)[C@@H](O)[C@@H](O[C@H]4[C@H](O)[C@@H](O)[C@@H](O[C@H]5[C@H](O)[C@@H](O)[C@@H](O[C@H]6[C@H](O)[C@@H](O)[C@@H](O[C@H]7[C@H](O)[C@@H](O)[C@@H](O[C@H]8[C@H](O)[C@@H](O)[C@@H](O[C@H]9[C@H](O)[C@@H](O)[C@@H](O[C@H]1[C@H](O)[C@H]2O)O[C@@H]9CO)O[C@@H]8CO)O[C@@H]7CO)O[C@@H]6CO)O[C@@H]5CO)O[C@@H]4CO)O[C@@H]3CO [γ-cyclodextrin]
